In patent publication US8669072B2, “Oxadiazoline ligands for modulating the expression of exogenous genes via an ecdysone receptor complex” (Intrexon Corporation, priority 2003, dated 2014):
Where two headings read alike, the source gives them in different places.

Key:
Bombyx mori EcR (VBE) = target: T1, Bombyx mori EcR (VBE) (Bombyx mori, UniProt P49881); assay: Z3 assay: β-galactosidase reporter gene induction in HEK-293 clone Z3 (CVBE / 6XEcRE LacZ); format: cell-based; conditions: for fold induction at 33 µM: read-out: Fold Induction Average, Z3 assay
T1 construct: expressed in transfected cells; host or cells: Human HEK-293 cells, retrovirally infected, clone Z3
T1 sequence (P49881 86-606 limits assumed): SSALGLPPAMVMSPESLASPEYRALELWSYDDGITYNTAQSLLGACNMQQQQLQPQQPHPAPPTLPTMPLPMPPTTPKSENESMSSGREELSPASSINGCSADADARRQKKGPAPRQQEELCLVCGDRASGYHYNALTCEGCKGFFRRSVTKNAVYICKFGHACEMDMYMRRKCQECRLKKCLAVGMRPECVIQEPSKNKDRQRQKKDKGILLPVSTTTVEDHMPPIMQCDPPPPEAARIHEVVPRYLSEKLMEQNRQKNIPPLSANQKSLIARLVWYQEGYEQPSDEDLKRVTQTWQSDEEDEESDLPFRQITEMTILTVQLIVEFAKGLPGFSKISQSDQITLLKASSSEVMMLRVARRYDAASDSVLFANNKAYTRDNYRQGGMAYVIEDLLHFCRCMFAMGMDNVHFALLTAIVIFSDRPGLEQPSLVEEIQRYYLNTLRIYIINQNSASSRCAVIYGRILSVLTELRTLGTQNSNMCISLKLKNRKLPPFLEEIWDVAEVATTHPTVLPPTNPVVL
T1 sequence (P19793 1-462 partner): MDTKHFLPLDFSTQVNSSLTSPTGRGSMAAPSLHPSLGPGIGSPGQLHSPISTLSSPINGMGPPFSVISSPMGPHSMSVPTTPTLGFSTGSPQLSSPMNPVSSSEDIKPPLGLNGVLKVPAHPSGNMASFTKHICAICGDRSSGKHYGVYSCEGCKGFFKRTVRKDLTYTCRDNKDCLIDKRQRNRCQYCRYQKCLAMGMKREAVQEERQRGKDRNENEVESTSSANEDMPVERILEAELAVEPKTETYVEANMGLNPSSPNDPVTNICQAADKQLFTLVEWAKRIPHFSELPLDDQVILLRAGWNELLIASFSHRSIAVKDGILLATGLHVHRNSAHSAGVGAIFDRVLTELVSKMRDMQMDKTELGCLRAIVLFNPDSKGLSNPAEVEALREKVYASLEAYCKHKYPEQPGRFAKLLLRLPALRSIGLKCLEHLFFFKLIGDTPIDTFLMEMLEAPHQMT
Protocol: A synthetic ATG start codon was placed under the control of cytomegalovirus (CVBE) immediate early promoter and flanked by long terminal repeats (LTR). The reporter construct contained six copies of the ecdysone response element (EcRE) binding site placed upstream of LacZ and flanked on both sides with LTR sequences (6×EcRE).
Dilution cloning was used to isolate individual clones. Clones were selected using 450 ug/mL G418 and 100 ng/mL puromycin. Individual clones were evaluated based on their response in the presence and absence of test ligands.
Z3 cells were seeded into 96-well tissue culture plates at a concentration of 2.5×10^3 cells per well and incubated at 37° C. in 5% CO2 for twenty-four hours. Stock solutions of ligands were prepared in DMSO. […] The final concentration of DMSO was maintained at 0.03% in both controls and treatments.
Reporter gene expression was evaluated 48 hours after treatment of cells, β-galactosidase activity was measured using Gal Screen™ bioluminescent reporter gene assay system from Tropix (GSY1000). Fold induction activities were calculated by dividing relative light units (“RLU”) in ligand treated cells with RLU in DMSO treated cells. Luminescence was detected at room temperature using a Dynex MLX microtiter plate luminometer.
(§1) Each assay was conducted in two separate wells, and the two values were averaged. Fold inductions were calculated by dividing relative light units (“RLU”) in ligand treated cells with RLU in DMSO treated cells. EC50s were calculated from dose response data using a three-parameter logistic model.

[1] = target: T2, GAL4 DBD (1-147)-CfEcR(DEF)/VP16AD-βRXREF-LmUSPEF (Choristoneura fumiferana, UniProt O77240); assay: cell-based; conditions: for fold induction at 33.3 µM: 48 h, read-out: Fold Induction Average, 27-63 assay; for Rel Max FI, 27-63 assay: maximum fold induction relative to that of GS-E ligand
T2 construct: The wild-type D, E, and F domains from spruce budworm Choristoneura fumiferana EcR (“CfEcR-DEF”)
Protocol: Stably transfected cells were selected by Zeocin resistance. Individually isolated CHO cell clones were transiently transfected with a GAL4 RE-luciferase reporter (pFR Luc). 27-63 clone was selected using Hygromycin.
(§2) Cells were trypsinized and diluted to a concentration of 2.5×10^4 cells mL. 100 μL of cell suspension was placed in each well of a 96 well plate and incubated at 37° C. under 5% CO2 for 24 h. Ligand stock solutions were prepared in DMSO and diluted 300 fold for all treatments.
(§3) Luciferase reporter gene expression was measured 48 h after cell treatment using Bright-Glo™ Luciferase Assay System from Promega (E2650). Luminescence was detected at room temperature using a Dynex MLX microtiter plate luminometer.
as §1

[2] = target: T3, GAL4 DBD-CfEcR(DEF)/VP16AD-MmRXRE (Choristoneura fumiferana, UniProt O77240); assay: 13B3 assay: luciferase reporter gene induction in stable CHO clone 13B3; format: cell-based; conditions: for fold induction at 33.3 µM: 48 h, read-out: Fold Induction Average, 13B3 assay
T3 construct: The wild-type D, E, and F domains from spruce budworm Choristoneura fumiferana EcR (“CfEcR-DEF”)
Protocol: CHO cells were transiently transfected with transcription cassettes for GAL4 DBD-CfEcR(DEF) and for VP16AD-MmRXRF controlled by SV40e promoters. Stably transfected cells were selected using Hygromycin. Individually isolated CHO cell clones were transiently transfected with a GAL4 RE-luciferase reporter (pFR-Luc, Stratagene, La Jolla, Calif.). The 13B3 clone was selected using Zeocin.
as §2, §3, §1

[3] = system: MTA (two-spotted spider mite); assay: Insect toxicity contact bioassay, MTA; format: in vivo; conditions: 150 ppm
Protocol: (§4) The compound to be evaluated was dissolved in an appropriate solvent, usually a mix of acetone, methanol, and water. Test solutions were made by serial dilution of a stock test solution with acetone, methanol, and water. Initial evaluations were made at one or more concentrations on one or more of the following insects:
(§5) Contact bioassays (green peach aphid, two-spotted spider mite, white fly) were conducted by applying a solution of the test compound to the inside surface of a Petri dish. The solution was allowed to air-dry, then each dish was infested and the larvae from each treatment were transferred to a bioassay tray. The trays were held for one to seven days, and the mortality rating was determined for each treatment.

Beet Armyworm = assay: Insect toxicity feeding bioassay, BAW; format: in vivo; conditions: 150 ppm
Protocol: as §4
(§6) Feeding bioassays were conducted in bioassay trays containing insect diet. Treatments were made by applying 50 μL of test solution to the surface of the diet in each of 5 wells. After the test solution dried, each well was infested with a single neonate larva. The trays were held for six days and then the mortality rating was determined for each treatment.

WFN (white fly) = assay: Insect toxicity contact bioassay, WFN; format: in vivo; conditions: 150 ppm
Protocol: as §4, §5

Tobacco Budworm = assay: Insect toxicity bioassay, TBW; format: in vivo; conditions: 150 ppm
Protocol: as §4, §6
Some of the tobacco budworm tests were conducted as follows. A test solution containing 600 ppm was made by dissolving a compound of the invention in a 1:1 acetone:methanol solution, then adding water to give a 5:5:90 acetone:methanol:water solution, and finally a surfactant was added at an equivalent of 7.37 g of surfactant per 100 L of test solution (1 ounce of surfactant per 100 gallons of test solution). Appropriate dilutions were prepared in water from the 600 ppm solution. A detached cotton leaf, Gossypium hirsutum was placed on moistened filter paper in a Petri dish (100×20 mms). The leaf was sprayed with the test solution using a rotating turntable sprayer and allowed to dry. The dish was infested with 10 first instar larvae of the tobacco budworm and covered with the lid. If the larvae were alive two days after treatment, fresh untreated cotton leaves were added. All treatments were maintained at 23.9-26.7° C. (75-80° F.) under fluorescent light in a well-ventilated room. Percent mortality was determined at four days after treatment.

Cabbage Looper = assay: Insect toxicity feeding bioassay, CL; format: in vivo; conditions: 150 ppm
Protocol: as §4, §6

[4] = HEK293, 33 μM ligand, 48 h, RLU relative to DMSO
[5] = 33/33.3 μM ligand, RLU relative to DMSO
[6] = maximum fold induction relative to that of GS-E ligand

Row | SMILES | fold induction at 33 µM (Bombyx mori EcR (VBE); [4]) | EC50 [1] [µM] | fold induction at 33.3 µM [1] | Rel Max FI, 27-63 assay [1] | fold induction at 33.3 µM [2, 5] | also measured
1 | CCc1ccc(C(=O)NN2C(c3ccc4c(c3)OCO4)=NOC2(C)C)cc1 [RG-120061] | 0.6 | > 33 | 0.9 | 0 | 0.4 | –
2 | CCc1c(OC)cccc1C(=O)NN1C(c2ccccc2OC)=NOC1(C)C [RG-120016] | 227 | ~20 | 1150 | 0.71 | 4.4 | –
3 | CCc1ccc(C(=O)NN2C(c3ccc(OC(F)(F)F)cc3)=NOC2(C)C)cc1 [RG-120055] | 0.2 | > 33 | 0.5 | 0 | 0.7 | –
4 | CCc1ccc(C(=O)NN2C(c3ccccc3)=NOC2(C)CC)cc1 (centres unmarked) [RG-120137] | 59 | > 33 | 4.6 | 0 | 5.3 | –
5 | Cc1cc(C)cc(C2=NOC(C)(C)N2NC(=O)c2ccc(Cl)cc2)c1 [RG-120024] | 3.8 | > 33 | 6.3 | 0 | 2.1 | –
6 | CCc1c(OC)cccc1C(=O)NN1C(c2ccc(OC)cc2OC)=NOC1(C)C [RG-120058] | 1.7 | > 33 | 0.3 | 0 | 0.3 | –
7 | CC1(C)ON=C(c2cccc(C(F)(F)F)c2)N1NC(=O)c1ccccc1 [RG-120015] | – | – | – | – | – | Insect Toxicity % control @ 150 ppm, MTA [3]: 0% @ 150; Insect Toxicity % control @ 150 ppm, BAW (Beet Armyworm): 80% @ 150; Fold Induction Average, Z3 assay (Bombyx mori EcR (VBE); 33 μM ligand, 48 h, RLU relative to DMSO): 0.8; Insect Toxicity % control @ 150 ppm, WFN (WFN (white fly)): 0% @ 150; Insect Toxicity % control @ 150 ppm, TBW (Tobacco Budworm): 0% @ 150; Insect Toxicity % control @ 150 ppm, CL (Cabbage Looper): 0% @ 150
8 | Cc1cc(C)cc(C2=NOC(C)(C)N2NC(=O)c2cccc(F)c2)c1 [RG-120002] | 3.9 | > 33 | 5.7 | 0 | 0.2 | –
9 | CCC1(C)ON=C(c2ccccc2)N1NC(=O)c1ccccc1 (centres unmarked) [RG-120118] | 1.4 | > 33 | 13.4 | 0 | 0.8 | –
10 | COc1cccc(C(=O)NN2C(c3cc(C)cc(C)c3)=NOC2(C)C)c1C [RG-120045, N-[3-(3,5-Dimethyl-phenyl)-5,5-dimethyl-[1,2,4]oxadiazol-4-yl]-3-methoxy-2-methyl-benzamide] | 276 | ~20 | 2710 | 1.25 | 1410 | –
11 | CCc1ccc(C(=O)NN2C(c3ccccc3)=NOC2(C)C)cc1 [RG-120115] | – | > 33 | – | 0 | – | fold induction at 33 µM (Bombyx mori EcR (VBE); HEK293, 48 h): 9.1; fold induction at 33.3 µM [2]: 0.8
12 | CCc1c(OC)cccc1C(=O)NN1C(c2cc(C)cc(C)c2)=NOC12CCCC2 [RG-120049] | 310 | 3.42 | 2070 | 1.58 | 2660 | EC50 (Bombyx mori EcR (VBE)): 1.6 µM; Rel Max FI, Z3 assay (Bombyx mori EcR (VBE); [6]): 0.88; EC50 [2]: 3.57 µM; Rel Max FI, 13B3 assay [2, 6]: 1.56
13 | CCc1ccc(C(=O)NN2C(c3ccc(OC)cc3OC)=NOC2(C)C)cc1 [RG-120135] | 0.7 | > 33 | 0.7 | 0 | 0.4 | –
14 | COc1cccc(C(=O)NN2C(c3cc(C)cc(C)c3)=NOC23CCc2ccccc2C3)c1C (centres unmarked) [RG-120037, N-[3-(3,5-Dimethyl-phenyl)-1-oxa-2,4-diaza-spiro[4.5]-7,8-benzo-dec-2-en-4-yl]-3-methoxy-2-methyl-benzamide] | 0.5 | > 33 | 0.4 | 0 | 0.3 | –
15 | CCc1ccc(C(=O)NN2C(c3ccccc3)=NOC23CCOCC3)cc1 [RG-120124] | 2 | > 33 | 1 | 0 | 1.2 | –
16 | CCc1ccc(C(=O)NN2C(c3cc(C)cc(C)c3)=NOC23CCCC3)cc1 [RG-120040] | 202 | ~20 | 242 | 0.13 | 174 | –
17 | CCc1c(OC)cccc1C(=O)NN1C(c2ccccc2)=NOC12CCOCC2 [RG-120159] | 0.2 | > 33 | 3.7 | 0 | 0.1 | –
